Legend:
[1] = Selectivity index, ratio of IC50 for equine serum BChE to IC50 for human erythrocyte AChE
[2] = target: T1, Acetylcholinesterase (Homo sapiens, UniProt P22303); test: Inhibition of human erythrocyte AChE using acetylthiocholine iodide as substrate preincubated for 5 mins followed by substrate addition measured every minute for 10 mins by Ellman's method
[3] = target: Cholinesterase (Equus caballus, UniProt P81908)
Description: Inhibition of equine serum BChE using butyrylthiocholine iodide as substrate preincubated for 5 mins followed by substrate addition measured every minute for 10 mins by Ellman's method

[4] = Effective permeability of compound at 100 uM at pH 7.4 by PAMPA; format: ADME; conditions: read-out: Peff
[5] = Half life in 2% riboflavine solution in PBS at 25 uM by HPLC-UV analysis; format: physicochemical
[6] = target: T1, Acetylcholinesterase; test: Inhibition of human erythrocyte AChE using acetylthiocholine iodide as substrate at 10 uM preincubated for 5 mins followed by substrate addition measured every minute for 10 mins by Ellman's method relative to control
[7] = target: Cholinesterase (Equus caballus) (UniProt P81908); test: Inhibition of equine serum BChE using butyrylthiocholine iodide as substrate at 10 uM preincubated for 5 mins followed by substrate addition measured every minute for 10 mins by Ellman's method relative to control
[8] = in vitro; conditions: PAMPA, pH 7.4

Chain of Cholinesterase (P81908 whole entry): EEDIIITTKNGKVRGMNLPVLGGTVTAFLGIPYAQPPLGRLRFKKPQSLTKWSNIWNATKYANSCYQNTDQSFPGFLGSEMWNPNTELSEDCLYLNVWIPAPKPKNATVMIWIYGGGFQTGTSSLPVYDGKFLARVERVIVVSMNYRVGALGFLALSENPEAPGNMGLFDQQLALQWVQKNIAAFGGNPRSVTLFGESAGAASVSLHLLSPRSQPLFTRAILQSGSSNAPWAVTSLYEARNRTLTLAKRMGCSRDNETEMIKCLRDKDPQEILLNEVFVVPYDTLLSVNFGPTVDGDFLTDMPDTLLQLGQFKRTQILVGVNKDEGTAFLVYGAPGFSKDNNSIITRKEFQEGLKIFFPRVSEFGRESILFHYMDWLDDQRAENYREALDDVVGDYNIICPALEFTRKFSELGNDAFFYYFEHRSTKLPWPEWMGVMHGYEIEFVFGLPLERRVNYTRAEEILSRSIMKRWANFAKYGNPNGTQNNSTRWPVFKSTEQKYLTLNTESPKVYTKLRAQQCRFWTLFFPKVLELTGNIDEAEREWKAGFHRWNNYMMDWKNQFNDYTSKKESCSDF
T1 sequence (P22303 whole entry): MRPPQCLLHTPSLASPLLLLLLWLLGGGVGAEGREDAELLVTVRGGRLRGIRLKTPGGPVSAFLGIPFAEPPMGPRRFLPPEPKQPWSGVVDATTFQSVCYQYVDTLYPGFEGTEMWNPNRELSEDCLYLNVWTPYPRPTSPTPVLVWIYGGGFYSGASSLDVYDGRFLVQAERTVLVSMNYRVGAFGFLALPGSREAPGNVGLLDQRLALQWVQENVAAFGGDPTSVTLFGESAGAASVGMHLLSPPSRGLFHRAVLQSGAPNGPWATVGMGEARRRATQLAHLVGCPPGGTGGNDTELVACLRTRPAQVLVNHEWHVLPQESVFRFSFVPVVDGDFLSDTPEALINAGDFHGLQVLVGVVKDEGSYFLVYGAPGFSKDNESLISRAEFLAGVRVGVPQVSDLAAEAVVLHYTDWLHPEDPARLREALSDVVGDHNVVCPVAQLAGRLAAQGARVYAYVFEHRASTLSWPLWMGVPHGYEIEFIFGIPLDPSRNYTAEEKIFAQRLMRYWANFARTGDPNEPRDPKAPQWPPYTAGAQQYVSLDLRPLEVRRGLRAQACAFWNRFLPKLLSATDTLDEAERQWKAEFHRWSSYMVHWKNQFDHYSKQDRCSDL
Chain of Cholinesterase (Equus caballus) (P81908 whole entry): as the sequence (P81908 whole entry) above

Structure (SMILES) | Ratio IC50 [1] | IC50 [2] | IC50 [3] | also measured
COc1ccc2c(c1)CCC(Cc1cc[n+](Cc3ccc(Cl)cc3)cc1C(C)=O)C2=O (centres undefined) | 10.7 | – | – | –
COc1ccc2c(c1)CCC(Cc1cc[n+](Cc3cccc(C(F)(F)F)c3)cc1C(C)=O)C2=O (centres undefined) | 18 | – | – | –
COc1ccc2c(c1)CCC(Cc1cc[n+](Cc3ccccc3C)cc1C(C)=O)C2=O (centres undefined) | 43.3 | – | – | –
COc1ccc2c(c1)CCC(Cc1cc[n+](CC3CCCCC3)cc1C(C)=O)C2=O (centres undefined) | 1.6 | 0.21 µM | 0.341 µM | –
COc1cc2c(cc1OC)C(=O)C(Cc1cc[n+](CCc3ccccc3)cc1C(N)=O)C2 (centres undefined) | – | 0.896 µM | > 10 µM | –
COc1ccc(C(=O)CCc2cc[n+](Cc3cccc(Cl)c3)cc2C(N)=O)cc1OC | – | > 10 µM | > 10 µM | –
COc1ccc2c(c1)CCC(CC1C=CN(Cc3ccccc3F)C=C1C(C)=O)C2=O (centres undefined) | – | > 10 µM | – | –
COc1ccc2c(c1)CCC(Cc1cc[n+](Cc3ccc(C)cc3)cc1C(C)=O)C2=O (centres undefined) | 7.4 | – | – | –
CC(=O)c1c[n+](Cc2ccccc2C)ccc1CC1Cc2cc(OCC(F)(F)F)ccc2C1=O (centres undefined) | 112 | 0.0371 µM | 4.15 µM | –
COc1ccc2c(c1)CCC(Cc1cc[n+](Cc3cccc(Cl)c3)cc1C(C)=O)C2=O (centres undefined) | 6.9 | – | – | –
CC(=O)C1=CN(Cc2cccc(Cl)c2)C=CC1CC1Cc2cc(F)ccc2C1=O (centres undefined) | – | > 10 µM | > 10 µM | –
COc1ccc2c(c1)CCC(CC1C=CN(Cc3ccccc3C)C=C1C(N)=O)C2=O (centres undefined) | – | > 10 µM | > 10 µM | Papp at 100 µM [4]: 18.8 ×10⁻⁶ cm/s
COc1ccc2c(c1)CCC(Cc1cc[n+](Cc3cccc(C)c3)cc1Br)C2=O (centres undefined) | 40 | – | – | –
C[C@]12CCC(=O)C=C1CC[C@@H]1[C@@H]2C(=O)C[C@@]2(C)[C@H]1CC[C@]2(O)C(=O)CO [CORTISONE] | – | – | – | Papp at 100 µM [4]: 16.8 to 20.3 ×10⁻⁶ cm/s
COc1cc2c(cc1OC)C(=O)C(Cc1cc[n+](Cc3cccc(Cl)c3)cc1C(C)=O)CC2 (centres undefined) | – | 0.021 µM | – | –
COc1cc2c(cc1OC)C(=O)C(Cc1cc[n+](Cc3cccc(O)c3)cc1C(N)=O)C2 (centres undefined) | – | > 10 µM | 5.36 µM | –
COC(=O)c1c[n+](Cc2cccc(Cl)c2)ccc1CCC(=O)c1ccc(OC)c(OC)c1 | – | 0.171 µM | 2.03 µM | –
COc1ccc(C(=O)CCCCc2cc[n+](Cc3cccc(Cl)c3)cc2C(N)=O)cc1OC | – | > 10 µM | > 10 µM | –
COc1cc2c(cc1OC)C(=O)C(CC1C=CN(Cc3cccc(Cl)c3)C=C1C(N)=O)C2 (stereo in doubt; 23h-B) | – | 27 µM | 19.9 µM | t1/2 ([5]; buffer, 25 µM): 17.7 min
COc1cc2c(cc1OC)C(=O)C(CC1C=CN(Cc3ccccc3)C=C1C(C)=O)CC2 (stereo in doubt; 24a-B) | – | 0.286 µM | 1.83 µM | –
COc1ccc2c(c1)CCC(Cc1cc[n+](Cc3ccccc3Cl)cc1C(C)=O)C2=O (centres undefined) | 8.6 | 0.0295 µM | – | –

Structure (SMILES) | Ratio IC50 [1] | IC50 [2] | IC50 [3] | also measured
COc1ccc2c(c1)CCC(CC1C=CN(Cc3cccc(F)c3)C=C1C(C)=O)C2=O (centres undefined) | – | > 10 µM | – | –
COc1cc2c(cc1O)C(=O)C(Cc1cc[n+](Cc3cccc(Cl)c3)cc1C(C)=O)C2 (centres undefined) | – | 0.0027 µM | > 10 µM | –
COc1cc2c(cc1OC)C(=O)C(Cc1cc[n+](Cc3cccc(Cl)c3)cc1C(=O)O)C2 (centres undefined) | – | > 10 µM | > 10 µM | –
COc1cc2c(cc1OC)C(=O)C(CC1C=CN(Cc3cccc(Cl)c3)C=C1C(N)=O)C2 (stereo in doubt; 23h-A) | – | 5.34 µM | 14.3 µM | half-life at 25 µM ([5]; 2% riboflavine solution in PBS): 24.6 min
COc1ccc2c(c1)CCC(Cc1cc[n+](Cc3cccc(C)c3)cc1C(C)=O)C2=O (centres undefined) | 5.3 | – | – | –
COc1cc2c(cc1OC)C(=O)C(CC1C=CN(Cc3ccccc3)C=C1C(C)=O)CC2 (centres undefined) [listing 1 of 2 here] | – | – | – | Papp at 100 µM [4]: 20.4 ×10⁻⁶ cm/s
CCC[n+]1ccc(CC2CCc3cc(OC)ccc3C2=O)c(C(C)=O)c1 (centres undefined) | – | > 10 µM | > 10 µM | –
COc1cc2c(cc1OC)C(=O)C(CC1C=CN(Cc3cccc(Cl)c3)C=C1C(N)=O)C2 (centres undefined) | – | – | – | inhibition [6]: 29%; inhibition [7]: 6%
COc1cc2c(cc1OC)C(=O)C(CCCc1cc[n+](Cc3cccc(Cl)c3)cc1C(N)=O)C2 (centres undefined) | – | > 10 µM | 3.26 µM | –
COc1ccc(C(=O)CCC2C=CN(Cc3cccc(Cl)c3)C=C2C(N)=O)cc1OC (centres undefined) | – | > 10 µM | > 10 µM | Papp at 100 µM [4]: 18.9 ×10⁻⁶ cm/s
COc1cc2c(cc1OC)C(=O)C(CC1C=CN(Cc3ccccc3)C=C1C(C)=O)CC2 (stereo in doubt; 24a-D) | – | 0.924 µM | 9.07 µM | –
COc1cc2c(cc1OC)C(=O)C(Cc1cc[n+](Cc3ccc(S(N)(=O)=O)cc3)cc1C(N)=O)C2 (centres undefined) | – | > 10 µM | > 10 µM | –
CC(=O)c1c[n+](Cc2cccc(Cl)c2)ccc1CC1Cc2cc(O)ccc2C1=O (centres undefined) | – | 0.116 µM | > 10 µM | –
COc1cc2c(cc1OC)C(=O)C(Cc1cc[n+](Cc3nc4ccccc4o3)cc1C(N)=O)C2 (centres undefined) | – | 9.27 µM | > 10 µM | –
COc1ccc(C(=O)CCc2cc[n+](Cc3cccc(Cl)c3)cc2C(C)=O)cc1OC | 22.2 | 0.144 µM | 3.2 µM | –
COc1ccc(C(=O)CCc2cc[n+](Cc3ccc(Cl)cc3)cc2C#N)cc1OC | – | > 10 µM | > 10 µM | –
COc1ccc2c(c1)CCC(CC1C=CN(Cc3ccccc3Cl)C=C1C(C)=O)C2=O (centres undefined) | – | > 10 µM | – | Papp at 100 µM [4]: 21.2 ×10⁻⁶ cm/s
COc1ccc(C(=O)CCC2C=CN(Cc3cccc(Cl)c3)C=C2C(C)=O)cc1OC (centres undefined) | – | > 10 µM | > 10 µM | Papp at 100 µM [4]: 18.2 ×10⁻⁶ cm/s
Cn1c(=O)c2[nH]cnc2n(C)c1=O.O [THEOPHYLLINE] | – | – | – | Papp at 250 µM [8]: 0.4 to 0.66 ×10⁻⁶ cm/s
COc1cc2c(cc1OC)C(=O)C(Cc1cc[n+](Cc3ccccc3)cc1Br)C2 (centres undefined) | 4970 | – | – | –
COC(=O)c1ccccc1C[n+]1ccc(CC2Cc3cc(OC)c(OC)cc3C2=O)c(C(=O)Oc2c(Cl)cc(Cl)cc2Cl)c1 (centres undefined) | 5.38 | 0.0693 µM | 0.373 µM | –

Structure (SMILES) | Ratio IC50 [1] | IC50 [2] | IC50 [3] | also measured
COc1ccc2c(c1)CCC(CC1C=CN(Cc3ccc(C)cc3)C=C1C(C)=O)C2=O (centres undefined) | – | > 10 µM | > 10 µM | –
COc1ccc(C(=O)CCc2cc[n+](Cc3ccccc3C(F)(F)F)cc2C#N)cc1OC | – | 0.275 µM | – | –
COc1ccc(C(=O)CCc2cc[n+](Cc3cccc(Cl)c3)cc2C(=O)O)cc1OC | – | 0.0181 µM | – | –
COc1ccc2c(c1)CCC(Cc1cc[n+](Cc3ccccc3F)cc1C(C)=O)C2=O (centres undefined) | 11 | – | – | –
COc1ccc2c(c1)CCC(CC1C=CN(Cc3cccc(C)c3)C=C1C(C)=O)C2=O (centres undefined) | – | > 10 µM | – | –
COc1ccc2c(c1)CCC(Cc1cc[n+](Cc3ccccc3C)cc1C(F)(F)F)C2=O (centres undefined) | 9.2 | 0.242 µM | 2.24 µM | –
COc1ccc2c(c1)CCC(Cc1cc[n+](Cc3ccccc3Cl)cc1C(N)=O)C2=O (centres undefined) | 6.9 | 0.379 µM | 2.64 µM | –
COc1cc2c(cc1OC)C(=O)C(CC1C=CN(Cc3ccccc3)C=C1C(C)=O)CC2 (stereo in doubt; 24a-C) | – | 0.173 µM | 1.67 µM | –
COc1cc2c(cc1OC)C(=O)C(Cc1cc[n+](Cc3cccc(C)n3)cc1C(N)=O)C2 (centres undefined) | – | 1.86 µM | > 10 µM | –
COc1ccc(C(=O)CCc2cc[n+](Cc3cccc(F)c3)cc2C#N)cc1OC | – | 0.011 µM | > 10 µM | –
COc1cc2c(cc1OC)C(=O)C(CC1C=CN(Cc3ccccc3C)C=C1C(C)=O)C2 (centres undefined) | – | – | – | Papp at 100 µM [4]: 19.1 ×10⁻⁶ cm/s
CC(=O)c1c[n+](Cc2cccc(Cl)c2)ccc1CC1Cc2cc(F)ccc2C1=O (centres undefined) | – | > 10 µM | – | –
COc1ccc2c(c1)CCC(Cc1cc[n+](Cc3ccccc3C)cc1C(N)=O)C2=O (centres undefined) | 10.2 | 0.894 µM | 9.11 µM | –
COC(=O)C1=CN(Cc2cccc(Cl)c2)C=CC1CCC(=O)c1ccc(OC)c(OC)c1 (centres undefined) | – | > 10 µM | > 10 µM | –
COc1ccc2c(c1)CCC(CC1C=CN(Cc3ccc(Cl)cc3)C=C1C(C)=O)C2=O (centres undefined) | – | > 10 µM | > 10 µM | –
CNC(=O)c1c[n+](Cc2ccccc2C)ccc1CC1CCc2cc(OC)ccc2C1=O (centres undefined) | – | > 10 µM | 2.51 µM | –
COc1ccc(C(=O)CCc2cc[n+](Cc3cccc(Cl)c3)cc2C#N)cc1OC | 191 | 0.0222 µM | 4.24 µM | –
COc1ccc(C(=O)CCC2C=CN(Cc3cccc(Cl)c3)C=C2C#N)cc1OC (centres undefined) | – | 0.923 µM | > 10 µM | Papp at 100 µM [4]: 15.1 ×10⁻⁶ cm/s
COc1cc2c(cc1OC)C(=O)C(CC1C=CN(Cc3ccccc3)C=C1C(C)=O)CC2 (centres undefined) [listing 2 of 2 here] | – | – | – | inhibition [6]: 36%; inhibition [7]: 45%
COc1ccc2c(c1)CCC(Cc1cc[n+](Cc3cccc(F)c3)cc1C(C)=O)C2=O (centres undefined) | 7.5 | – | – | –
COc1ccc2c(c1)CCC(CC1C=CN(Cc3cccc(C(F)(F)F)c3)C=C1C(C)=O)C2=O (centres undefined) | – | > 10 µM | > 10 µM | –

Reference: ChEMBL document CHEMBL4145472, “Novel donepezil-like N-benzylpyridinium salt derivatives as AChE inhibitors and their corresponding dihydropyridine "bio-oxidizable" prodrugs: Synthesis, biological evaluation and structure-activity relationship” (Eur J Med Chem, 2018)
